The results in this text go back to patent US20260200943A1, “COMPOUNDS FOR TREATING CANCER” (Genesis Therapeutics, Inc., priority 2022, published 2026).

Common to all, as to assay type: biochemical
Test [1] addresses T1, CDK2/CyclinA2 (Homo sapiens, UniProt P24941).
T1 construct: Wild-type, full length CDK2 in complex with wildtype, full length CyclinA2: Carna Cat #04-103; purchased Carna 04-103
Kind of test: CDK2/Cyclin A2 Mobility Shift Assay (Caliper, Table B). To be noted: for Ki: Caliper mobility shift, 10xKm, read-out: CDK2/CCNA2 Caliper 10xKm Ki: Average Ki. The protocol:
10 nL of 2000× compound in 100% DMSO is added to a 384-well polypropylene assay plate. 15 μL of 1.3×CDK2/A2 and 1.3× fluorescent substrate (Wild-type, full length CDK2 in complex with wildtype, full length CyclinA2: Carna Cat #04-103 and FL-Peptide 18: PerkinElmer Cat #760362) diluted in kinase buffer (50 mM Hepes, 0.01% Brij-35, 10 mM MgCl2, 1 mM EGTA, 0.05% BSA, and 2 mM DTT) is added to the plates on top of the compound, mixed, and pre-incubated for 30 minutes at room temperature. The fluorescently labeled peptide substrate is phosphorylated by CDK2/A2 upon ATP hydrolysis. Following the incubation, 5 μL of 4×ATP diluted in kinase buffer is added to the plate to initiate the reaction. Following the 30-minute incubation, the reaction is stopped by adding 75 μL of stopping buffer containing 0.5 M EDTA.
(§1) The assay plate is then read on a Lab Chip EZ Reader which separates the fluorescently labeled substrate and product peptides through a mobility difference. The phosphorylation of the substrate imparts a negative charge, which allows differences in separation as both are pulled through the microfluidic chip. The ratio of substrate and product values are used to generate percent conversion. These raw percent conversion values are normalized to calculate percent inhibition, which are fit to a four-parameter logistic curve and IC50 values are calculated. IC50 values are converted to Ki through using substrate and Km^app values, and the Cheng-Prusoff equation.

The target of test [2] is T2, CDK1/CyclinB1 (Homo sapiens, UniProt P06493).
T2 construct: Wild-type, full length CDK1 in complex with wildtype, full length CyclinB1: Carna Cat #04-102; purchased Carna 04-102
Nature of the test: CDK1/Cyclin B1 Mobility Shift Assay (Caliper, Table B). The conditions noted are these: read-out: CDK1/CCNB1 Caliper Ki: Average Ki. As for the experimental part: 10 nL of 2000× compound in 100% DMSO is added to a 384-well polypropylene assay plate. 15 μL of 1.3×CDK1/B1 and 1.3× fluorescent substrate (Wild-type, full length CDK1 in complex with wildtype, full length CyclinB1: Carna Cat #04-102 and FL-Peptide 29: PerkinElmer Cat #760429) diluted in kinase buffer (50 mM Hepes, 0.01% Brij-35, 10 mM MgCl2, 1 mM EGTA, 0.05% BSA, and 2 mM DTT) is added to the plates on top of the compound, mixed, and pre-incubated for 30 minutes at room temperature. The fluorescently labeled peptide substrate is phosphorylated by CDK1/B1 upon ATP hydrolysis. Following the incubation, 5 μL of 4×ATP diluted in kinase buffer is added to the plate to initiate the reaction. Following the 30-minute incubation, the reaction is stopped by adding 75 μL of stopping buffer containing 0.5 M EDTA.
as §1, with “Ki” for “Ki through”, “substrate, Kmapp” for “substrate and Km^app”

Test [3] deals with CDK9/CyclinT1 (Homo sapiens, UniProt P50750). Nature of the test: CDK9/CyclinT1 Mobility Shift Assay (Caliper, Table B). On the set-up: Wild-type, full length CDK9 in complex with wildtype, CyclinT1 (1-259): Biortus Cat #BP480/792/691; purchased Biortus BP480/792/691. To be noted: read-out: CDK9/Cyclin T1 Caliper Ki: Average Ki. As for the experimental part: 10 nL of 2000× compound in 100% DMSO is added to a 384-well polypropylene assay plate. 15 μL of 1.3×CDK9/T1 and 1.3× fluorescent substrate (Wild-type, full length CDK9 in complex with wildtype, CyclinT1 (1-259): Biortus Cat #BP480/792/691 and FL-Peptide 34: PerkinElmer Cat #760643) diluted in kinase buffer (50 mM Hepes, 0.01% Brij-35, 10 mM MgCl2, 1 mM EGTA, 0.05% BSA, and 2 mM DTT) is added to the plates on top of the compound, mixed, and pre-incubated for 30 minutes at room temperature. The fluorescently labeled peptide substrate is phosphorylated by CDK9/T1 upon ATP hydrolysis. Following the incubation, 5 μL of 4×ATP diluted in kinase buffer is added to the plate to initiate the reaction. Following the 30-minute incubation, the reaction is stopped by adding 75 μL of stopping buffer containing 0.5 M EDTA.
as §1, with “Ki” for “Ki through”, “substrate, Kmapp” for “substrate and Km^app”

T2 sequence (P06493 whole entry): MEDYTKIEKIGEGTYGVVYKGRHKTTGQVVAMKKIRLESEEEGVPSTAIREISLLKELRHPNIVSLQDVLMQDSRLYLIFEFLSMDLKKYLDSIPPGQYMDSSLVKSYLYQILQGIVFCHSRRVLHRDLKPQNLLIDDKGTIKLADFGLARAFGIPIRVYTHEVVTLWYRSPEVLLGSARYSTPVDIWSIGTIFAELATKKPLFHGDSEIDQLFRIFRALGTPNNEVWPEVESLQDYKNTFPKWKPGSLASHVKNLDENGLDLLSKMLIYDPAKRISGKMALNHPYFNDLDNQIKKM
T2 sequence (P14635 whole entry partner): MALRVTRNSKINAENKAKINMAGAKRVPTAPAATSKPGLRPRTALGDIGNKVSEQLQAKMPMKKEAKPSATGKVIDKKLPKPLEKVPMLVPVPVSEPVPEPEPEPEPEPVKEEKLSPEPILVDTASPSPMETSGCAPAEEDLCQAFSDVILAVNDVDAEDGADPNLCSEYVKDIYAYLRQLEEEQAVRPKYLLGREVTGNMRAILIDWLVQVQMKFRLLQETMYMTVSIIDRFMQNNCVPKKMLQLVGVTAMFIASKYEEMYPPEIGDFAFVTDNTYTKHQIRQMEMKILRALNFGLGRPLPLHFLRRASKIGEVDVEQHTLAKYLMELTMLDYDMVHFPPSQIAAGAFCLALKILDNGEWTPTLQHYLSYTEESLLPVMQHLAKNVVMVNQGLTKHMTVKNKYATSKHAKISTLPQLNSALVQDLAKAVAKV
Chain of CDK9/CyclinT1 (P50750 whole entry): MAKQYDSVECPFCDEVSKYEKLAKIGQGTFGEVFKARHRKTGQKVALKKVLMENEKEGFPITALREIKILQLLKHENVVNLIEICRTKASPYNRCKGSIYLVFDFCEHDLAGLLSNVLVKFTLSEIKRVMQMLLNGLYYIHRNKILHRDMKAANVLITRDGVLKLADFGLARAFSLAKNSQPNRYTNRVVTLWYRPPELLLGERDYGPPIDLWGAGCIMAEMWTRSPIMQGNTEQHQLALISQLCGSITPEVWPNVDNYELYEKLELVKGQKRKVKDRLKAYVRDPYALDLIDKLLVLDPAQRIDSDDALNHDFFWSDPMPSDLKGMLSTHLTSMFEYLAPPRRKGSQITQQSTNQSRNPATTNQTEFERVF
Chain of CDK9/CyclinT1 (O60563 1-259 partner limits assumed): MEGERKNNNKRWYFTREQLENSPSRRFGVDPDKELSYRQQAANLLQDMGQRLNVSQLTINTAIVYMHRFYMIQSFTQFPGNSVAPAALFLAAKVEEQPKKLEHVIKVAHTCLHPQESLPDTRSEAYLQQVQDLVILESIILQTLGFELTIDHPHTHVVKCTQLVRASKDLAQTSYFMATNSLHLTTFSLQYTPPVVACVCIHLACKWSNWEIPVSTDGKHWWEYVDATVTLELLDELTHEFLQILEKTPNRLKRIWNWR

As to `O=C1NCCCCCCCOc2cccc(n2)Nc2ncc(cn2)[C@@H]2CC[C@@H](C2)O1` [Compound 111], the Ki was 25 to 100 nM in test [1], no less than 100 nM in test [2] and no less than 100 nM in test [3]. The “CDK2/CCNA2 Caliper 10xKm Ki: CDK2/A2 Selectivity over CDK1/B1” value in test [1] is “C (C<5)”. The “CDK2/CCNA2 Caliper 10xKm Ki: CDK2/A2 Selectivity over CDK9” value in test [1] is listed as “B (5≤B<10)”.
In the case of `O=C1NCCCCCCOc2cccc(n2)Nc2ncc(cn2)[C@@H]2CC[C@@H](C2)O1` [Compound 112], in test [1], the Ki fell in the range of 25 to 100 nM, the “CDK2/CCNA2 Caliper 10xKm Ki: CDK2/A2 Selectivity over CDK1/B1” value was “B (5≤B<10)” and the “CDK2/CCNA2 Caliper 10xKm Ki: CDK2/A2 Selectivity over CDK9” value was “B (5≤B<10)”. Moreover, the Ki in test [2] was no less than 100 nM. The Ki in test [3] is no less than 100 nM.
In the case of `O=C1NCCCCCOc2cccc(n2)Nc2ncc(cn2)[C@@H]2CC[C@@H](C2)O1` [Compound 113], in test [1], the Ki is no less than 100 nM, the “CDK2/CCNA2 Caliper 10xKm Ki: CDK2/A2 Selectivity over CDK1/B1” value is “B (5≤B<10)” and the “CDK2/CCNA2 Caliper 10xKm Ki: CDK2/A2 Selectivity over CDK9” value is reported as “B (5≤B<10)”. In addition, the Ki in test [2] was no less than 100 nM.
`O=C1NCCCCOc2cccc(n2)Nc2ncc(cn2)[C@@H]2CC[C@@H](C2)O1` [Compound 114]: in test [1], the Ki was in the range of 25 to 100 nM, the “CDK2/CCNA2 Caliper 10xKm Ki: CDK2/A2 Selectivity over CDK1/B1” value was “B (5≤B<10)” and the “CDK2/CCNA2 Caliper 10xKm Ki: CDK2/A2 Selectivity over CDK9” value was “B (5≤B<10)”. In addition, the Ki in test [2] is no less than 100 nM.
As for `O=C1NCCCCCCNS(=O)(=O)c2ccc(cc2)Nc2ncc(cn2)[C@@H]2CC[C@@H](C2)O1` [Compound 115], in test [1], the Ki was no less than 100 nM, the “CDK2/CCNA2 Caliper 10xKm Ki: CDK2/A2 Selectivity over CDK1/B1” value is recorded as “B (5≤B<10)” and the “CDK2/CCNA2 Caliper 10xKm Ki: CDK2/A2 Selectivity over CDK9” value is recorded as “C (C<5)”. In addition, in test [2], the Ki is no less than 100 nM.
